“Also recorded” adds a separate entry of the source.
Assays:
[1] = tested on: alternative pathway in the complement system; experiment: Bactericidal assay, complement alternative pathway (NHS, Mg2+/EGTA, E. coli-pET); format: biochemical, human; conditions: 3 μM, control E. coli-pET
Method: Complement activation by the alternative pathway was also investigated. […] The susceptibility to complement-mediated lysis was determined by incubating E. coli-NadA and E. coli-pET with 0-75% NHS at 37° C. for 15 min under agitation. The number of surviving bacterial cells was measured by serial agar plating and colony counting.

[2] = tested on: monocytes; experiment: NadA binding to monocytes; set-up: species or system human
Method: The graphs plot the mean fluorescence intensities (MFI) ±SD measured in monocytes that have been incubated with NadAΔ351-405-Alexa, at different concentrations (A), or with 100 nM NadAΔ351-405-Alexa in presence of increasing concentrations of unlabelled protein (B), for 3 hours at 37° C. or 0° C. The reported data are the average of three independent experiments repeated in triplicate.
The dose-dependent preferential association of NadA to CD14^+ monocytes was also confirmed by MFI analysis. Competition using non-labelled ligand ascertained whether NadA binding was specific (FIG. 12). […] Based on the molecular weight of the NadA monomer, this value is in fact ˜1 μM, since the recombinant protein used in the experiment is a homo-trimer.

[3] = tested on: human macrophages; experiment: Morphology of macrophages (light microscopy); format: cell-based
Method: DCs cultured for 5 days in 6-well plates (Costar) were treated with recombinant human IFN-γ (1000 U/ml) for 18 h before NadA (1.5 μM) or LPS (1 μg/ml) stimulation for 4 h. Control cultures were untreated cells or treated with IFN-γ alone.
The same experiment was also carried out using macrophages.

[4] = tested on: human macrophages; experiment: Surface markers of human macrophages; format: cell-based
Source text: The functional effect of NadA on human monocytes and macrophages was investigated using a soluble recombinant mutant lacking the membrane anchor and a full length protein expressed in E. coli OMV or N meningitidis OMV. To better define the immuno-modulatory activity of NadA, the cells were stimulated with protein plus or minus both microbial stimulus (LPS) and immunological stimulus (IFNγ).
The effect of NadAΔ351-405 on monocyte and macrophage cells was further investigated by measuring the expression of the antigen presentation marker MHC-II, the co-stimulatory molecules CD80 and CD86 and the cell adhesion molecule ICAM-1.

[5] = tested on: mo-DCs; experiment: Cytokine and chemokine secretion by mo-DCs (Bio-Plex, ELISA); format: cell-based, human; conditions: for IL-12 released on co-stimulation with R-848: NadA 1.5 μM + R-848 1 μM
Method: Reagents used were tested for low endotoxin contamination using the Limulus amoebocyte assay (Sigma). Dendritic cells were generated from human peripheral blood mononuclear cells (PBMC) as described previously. In brief, PBMC were isolated from buffy coats of healthy donors by Ficoll-Paque Plus density gradient centrifugation (Amersham Pharmacia Biotech AB). Separate monocyte and T-cell fractions were obtained from PBMCs by Percoll density gradient centrifugation (Amersham Pharmacia Biotech AB). Residual T and B cells were removed from monocyte fraction by plastic adherence of 3×10^6 cells per well in 6-well plates (Costar) resulting in CD14^+ monocyte populations of >95% purity (determined by flow cytometry). DC were obtained by 6-d culture adherent monocytes in medium with 20 ng/ml IL-4 (5×10^6 units/mg, Peprotech) and 50 ng/ml GM-CSF (1×10^7 units/mg, Peprotech). Cytokines were added again on day 4 in RPMI-1640 medium supplemented with 10% FBS. Following this procedure more than 90% cells belonged to the immature DC phenotype (CD1a^+, HLADRlow, CD14^−, CD83^−, CD86^low, CD80^low). On day 5 cells were treated with nothing or with recombinant human IFN-γ (1000 U/ml) for 18 h before stimulation with NadA (0.0375-5 μM) or LPS (1 μg/ml). After 24 h cells were harvested and analysed. Culture supernatants were collected frozen in liquid nitrogen and conserved at −80° C. for cytokine analysis.
The antibody pairs used, directed against different non-competing epitopes of a given cytokine, were purchased from BioRad. Calibration curves from recombinant cytokine standard were prepared with four-fold dilution steps in RPMI-1640 medium containing 10% FBS. Assays were carried out in 96-well sterile pre-wetted filter plates at room temperature and protected from light. A mixture containing 5000 microspheres per cytokine was incubated together with standard or sample in a final volume of 50 μl for 30 min, under continuous shaking (300 rpm). After three washes by vacuum filtration with Bio-Plex washing buffer a cocktail of biotinylated antibodies diluted in Bio-Plex detection antibody diluent was added (25 μl to each well). After a 30 minutes incubation and washing, Streptavidin-PE diluted in Bio-Plex Assay buffer was added (50 μl per well). At the end of 10 minutes incubation under continuous shaking and after washing the fluorescence intensity of the beads was measured in a final volume of 125 μl of Bio-Plex assay buffer. Data analysis was done with Bio-Plex Manager software using a five-parametric-curve fitting. The detection limits were […].
IL12(p40) was measured by capture enzyme-linked immunosorbent assay (ELISA) with antibody pairs and cytokine standard purchased from Bender MedSystems. The concentrations of IL12(p40) in the cell-free supernatants were determined with ELISA kits according to the manufacturer's instructions. The detection limit of the assays was […].

[6] = tested on: human monocytes; experiment: Long-term morphology of monocytes (light microscopy); format: cell-based
Method: In order to evaluate the possible long-term, differentiation effect of NadA, adherent monocytes were treated with medium alone, NadAΔ351-405 or E. coli LPS and cells were cultured for seven days. At day 4 the agonists were added again to ensure a constant stimulation. Cell morphology was monitored by light microscopy after 1, 2, 3 and 7 days. […] NadAΔ351-405 thus induces both alteration cell morphology and distribution, this is a good indicator of monocyte activation and differentiation.

[7] = after IFN-γ priming, 24 hours, NadAΔ351-405 1 μM

## NadAΔ351-405
[1]
  effect on the alternative pathway: partially inhibit
[2]; 5 uM non-labelled, 125 nM Alexa-NadA, 37° C., BafA1
  decrease of the signal associated to monocytes by excess non-labelled NadA: −50%
[2]; NadA-I125 conjugate, Scatchard Plot
  affinity (Kd) of association to monocyte: ~3000 nM
[2]; corrected because the recombinant protein is a homo-trimer
  Kd of association to monocyte, value for the homo-trimer: ~1000 nM
[3]
  cell clustering compared to LPS treatment: reduced clustering
[4]
  ICAM-1 expression: increased
[4]; IFN-γ co-stimulation
  HLA-DR expression: greatly enhanced
[4]; co-stimulation with IFN-γ
  CD80 expression: increased
[4]; co-stimulation with LPS
  CD86 expression: Partial stimulation
[5]; after IFN-γ priming
  IL-12 released on co-stimulation with R-848: 45 ng/mL
  IL12-p40 maximal secretion relative to LPS: ~2%
  IL-12p70 secretion level relative to LPS: < 2%
  IL-12p70 secretion, dose response: reached a plateau below 1 μM NadA
[5]; no IFN-γ priming
  IL-12 released on co-stimulation with R-848: 2 ng/mL
[5]; NadA + R-848
  increase of IL-12 release by IFN-γ priming: 20 fold
[5]; absence of IFN-γ priming, up to 5 μM NadA
  IL-12p70 secretion, dose response: undetected
[5]; [7]
  IL-6 production relative to maximal LPS production: ~24%
  TNFα production relative to maximal LPS production: ~24%
[5]; non-primed cells
  NadA concentration at which IL-6, TNFα and IL-8 were evident: higher than 1 μM
[5]; with and without IFN-γ priming
  IL-8 secretion relative to that induced by LPS: ~24%
[5]; with or without IFN-γ priming, up to 5 μM NadA
  IL-10 production: Under no condition in this example was NadA able to induce IL-10 production; also recorded: undetectable
[6]; 3-day incubation
  cell morphology: became elongated and tended to cluster
[6]; 7 culture days
  number of surviving cells with respect to the control: greatly increased

— patent publication US20110008279A1, “Methods and Compositions Relating to Adhesins as Adjuvants” (priority 2005, published 2011)
